# Test results: article PMC11562385 (RSC Chemical Biology, 2024)
# Read-outs that look alike come from different tables or passages of the source. Square brackets hold non-standard residues; d marks the D form. Peptide text beside a SMILES is read from it. * marks the point of attachment. Dab = NCC[C@H](N)C(=O)O; Dap = NC[C@H](N)C(=O)O; Acryloyl = C=CC(=O)*
# Tests used:
# PD1:PDL1 interaction = target: T1, PD1:PDL1 interaction (Homo sapiens, UniProt Q15116); assay: PD1/PDL1 immunoblocking ELISA (BPS Bioscience kit cat # 72005); format: binding
# T1 construct: purchased BPS Bioscience 72005
# T1 sequence (Q15116 25-167 limits assumed): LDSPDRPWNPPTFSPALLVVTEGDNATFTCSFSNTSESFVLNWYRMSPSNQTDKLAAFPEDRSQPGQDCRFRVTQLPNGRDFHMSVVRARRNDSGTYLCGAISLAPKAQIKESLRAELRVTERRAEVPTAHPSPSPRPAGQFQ
# Description: Original loops with Phe/Trp and their Gly-derived analogs. Experimental EC50 values from inhibitory dose–response curves. Error bars indicate the mean ± SD, (n = 3). […]
# SDS -Pages, buffers, and stain were purchased from Fisher
# 8. Immunoblocking ELISA Assay
# Peptide inhibitor stock solutions were prepared in the concentration range of approximately 1-5 mM in DMSO. […]
# plate was then washed and blocked with blocking buffer for 1 h at room temperature. Inhibitor solutions (ranging from 0.01 to 100 μM) and a blank solution (DMSO/PBS buffer) were added to designated wells. To initiate the […]
# inhibitor solutions. After a 2 h incubation at room temperature, the plate was washed and blocked again for 10 min. Streptavidin-HRP (diluted at 1 : 1000) was added and incubated for 1 h at room temperature with gentle shaking. The plate was washed and blocked once more for 10 min. ELISA ECL substrate was added, and the resulting chemoluminescence was immediately measured in a luminometer (FLUOstar OPTIMA, BMG Labtech).
# The luminescence value of the blank was subtracted from all readings according to the manufacturer's
# [1] = Variable-temperature CD melting curves (CD-melts at 228±2 nm and 202±2 nm), individual and global two-state fits; format: physicochemical; parameters: DSo: unit not given here
# Description: Recently, our laboratory brought forward a novel synthetic technology for the synthesis of acyclic β-hairpins with long loops. […] To compare hairpins’ stability, both regular (R) and bulged (B) scaffolds were crafted around a flexible 10-residue model loop (G4K2G4) and analyzed by CD (circular dichroism) spectroscopy (Fig. 2(A), see ESI, ^† Table S5). The […] structure of these model scaffolds 1avs.2a in solution were recorded in the far-UV CD spectra. […] The CD-exciton intensity was therefore used as a global probe to determine the %-folding of ADAPTins and to obtain melting curves corresponding to the hairpin fraying mechanism upon a gradual increase of temperature (0 to 95 °C).[68] […] In addition, NMR (nuclear magnetic resonance) chemical shifts were measured to determine variations in backbone […] structures (Fig. 2(B)). Secondary chemical shift deviations (CSDs) were calculated against random coil values[69] for both ADAPTin scaffolds 1vs.2 to verify that the hairpins were folded and if any variation of conformational rigidity exist within the loops. […]
# Mass Spectrometer coupled to a Vanquish™ Neo UHPLC System (Thermo Scientific™). Peptide solutions for circular dichroism (CD) were prepared within a concentration range of 15-120 µM in a phosphate buffer (15 mM, […]
# measured accurately using a JASCO V-670 spectrophotometer relied on the combined molar absorptivity of Trp (ε280 = 5580 M-1 .cm-1 per Trp) and Tyr (ε280 = 1280 M-1 .cm-1 per Tyr) to determine each sample's concentration.
# CD spectra were recorded using a JASCO J-810 Spectropolarimeter equipped with a temperature controller module JASCO PFD-425S. Raw CD melting curves were processed in SpectraGryph, and fitting was performed in OriginPro 9.0 (Originlab Corporation, U.S.A.). NMR samples were prepared by reconstituting freeze -dried peptides (~ 1-5 mg) in mixture of water and DMSO -d6 (90:10 v/v) using 2,2-dimethyl-2-silapentane-5-sulfonate (DSS) as internal standard for chemical shifts (0 ppm), and spectra were recorded at 291 K (18 °C) unless otherwise stated. Chemical shifts ( δ) are reported in ppm. Samples for NMR experiments were prepared in a range of 3-10 mM of peptide in solution unless otherwise noted.
# [2] = ELISA, mean of three independent experiments, read-out: EC50 Value
structure (smiles),measurement,setting,value
CSCC[C@H](NC(=O)[C@H](CC(=O)O)NC(=O)CNC(=O)[C@H](CCCNC(=N)N)NC(=O)[C@H](Cc1ccc(O)cc1)NC(=O)[C@H](CC(=O)O)NC(=O)[C@H](CCCNC(=N)N)NC(=O)[C@H](Cc1c[nH]c2ccccc12)NC(=O)[C@@H](NC(=O)[C@H](Cc1c[nH]c2ccccc12)NC(=O)[C@@H](N)CCCNC(=N)N)C(C)C)C(=O)NCC(=O)N[C@@H](Cc1ccccc1)C(=O)N[C@@H](CC(=O)O)C(=O)N[C@@H](Cc1c[nH]c2ccccc12)C(=O)N[C@H](C(=O)N[C@@H](Cc1c[nH]c2ccccc12)C(=O)N[C@@H](CCC(=O)O)C(=O)O)C(C)C [1b] (H-RWVWRDYRGDMGFDWVWE-OH),EC50,PD1:PDL1 interaction; [2],7080 nM
same,LE (ligand efficiency),"PD1:PDL1 interaction; LE = -RTln(EC50)/HA, HA = non-hydrogen atoms omitting the strap (RWV•••VWE)",0.06
same,EC50,"PD1:PDL1 interaction; [PD1•PDL1] blocking EC50, Fig. 3B, cut-off bars of congeneric pairs (Phe/Trp vs Gly), n = 3",> 5000 nM
same,ΔGF0,"[1]; CD-melt at 228±2 nm, individual two-state Gibbs-Helmholtz fit (Origin 9.0), 0-95 °C, phosphate buffer 15 mM pH 6.5 ± MeOH",-0.64 ± 0.01 kcal/mol
same,DCp (fitted value),"[1]; CD-melt of 1b, c 3.4e-5 M, l 0.1 cm, two-state fit in OriginPro",-40.77 cal/(deg.mol)
same,DHm (fitted value),"[1]; CD-melt of 1b, c 3.4e-5 M, l 0.1 cm, two-state fit in OriginPro, enthalpy at Tm",-9.84462 kcal/mol
same,"cF(18 oC), fraction folded","[1]; CD-melt of 1b, two-state fit in OriginPro, 18 °C",81%
same,TDSo,"[1]; CD-melt of 1b, two-state fit in OriginPro, standard-state entropic term",-8.2949 kcal/mol
same,DHo,"[1]; CD-melt of 1b, two-state fit in OriginPro, standard-state folding enthalpy",-8.9431 kcal/mol
same,DSo,"[1]; CD-melt of 1b, two-state fit in OriginPro, standard-state folding entropy",-27.84
same,DGo,"[1]; CD-melt of 1b, two-state fit in OriginPro, standard-state folding free energy",-0.6482 kcal/mol
same,Tm,"[1]; CD-melt of 1b, two-state fit in OriginPro, the fitted Tm restated without a unit (apparently °C)",47 °C
same,%fold 291K,"[1]; CD-melt of 1b, two-state fit, 291 K",81%
same,%fold 310K,"[1]; CD-melt of 1b, two-state fit, 310 K",62%
same,Tm (fitted value),"[1]; CD-melt of 1b, θ - θcoil(95) vs T 0-95 °C, c 3.4e-5 M, l 0.1 cm, two-state fit in OriginPro",320.113 K
same,TM (°C),"[1]; Fig. 2, CD-melts of regular vs bulged scaffolds",47 °C
same,Tm,"[1]; Table S5, individual fit, 228±2 nm",46.9 oC
same,Hairpin %-fold 291K,"[1]; Table S5, individual fit, 291 K",81 ± 1%
same,Hairpin %-fold 310K,"[1]; Table S5, individual fit, 310 K",62 ± 1%
same,-TΔSF0,[1]; as E16,8.29 ± 0.02 kcal/mol
same,ΔCpF0,[1]; as E16,-41 ± 1 cal.deg-1.mol-1
same,ΔHF0,[1]; as E16,-8.94 ± 0.02 kcal/mol
same,ΔHm,[1]; as E16,-9.84 ± 0.01 kcal/mol
same,VT-CD %-fold,"[1]; folded fraction (χF) at 25 °C from CD-melts, (R) regular / (B) bulged fold, phosphate buffer 15 mM pH 6.5, up to 20% MeOH",81% (R)
same,VT-CD Tm (°C),"[1]; melting temperature from CD-melts, phosphate buffer 15 mM pH 6.5, up to 20% MeOH",47 °C
CC(C)C[C@H](NC(=O)[C@H](CCC(N)=O)NC(=O)[C@H](CCCNC(=N)N)NC(=O)[C@H](C)NC(=O)[C@@H](NC(=O)[C@H](Cc1c[nH]c2ccccc12)NC(=O)[C@@H](N)CCCNC(=N)N)C(C)C)C(=O)N[C@@H](Cc1ccc(O)cc1)C(=O)N[C@@H](Cc1ccc(O)cc1)C(=O)N[C@@H](Cc1ccccc1)C(=O)N[C@@H](CC(=O)O)C(=O)N[C@@H](Cc1ccc(O)cc1)C(=O)N[C@@H](Cc1c[nH]c2ccccc12)C(=O)N[C@H](C(=O)N[C@@H](Cc1c[nH]c2ccccc12)C(=O)N[C@@H](CCC(=O)O)C(=O)O)C(C)C [2m] (H-RWVARQLYYFDYWVWE-OH),EC50,PD1:PDL1 interaction; [2],144 nM
CSCC[C@H](NC(=O)CNC(=O)[C@H](CCC(=O)O)NC(=O)[C@H](CCCNC(=N)N)NC(=O)[C@H](C)NC(=O)[C@@H](NC(=O)[C@H](Cc1c[nH]c2ccccc12)NC(=O)[C@@H](N)CCCNC(=N)N)C(C)C)C(=O)N[C@@H](CC(N)=O)C(=O)N[C@H](C(=O)N[C@@H](CC(=O)O)C(=O)N[C@@H](Cc1c[nH]c2ccccc12)C(=O)N[C@@H](Cc1ccc(O)cc1)C(=O)N[C@@H](Cc1ccccc1)C(=O)N[C@@H](CC(=O)O)C(=O)N[C@@H](Cc1ccc(O)cc1)C(=O)N[C@@H](Cc1c[nH]c2ccccc12)C(=O)N[C@@H](Cc1cnc[nH]1)C(=O)N[C@@H](Cc1c[nH]c2ccccc12)C(=O)N[C@@H](CCC(=O)O)C(=O)O)[C@@H](C)O [2n] (H-RWVAREGMNTDWYFDYWHWE-OH),EC50,PD1:PDL1 interaction; [2],252 nM
CSCC[C@H](NC(=O)CNC(=O)[C@H](CCC(=O)O)NC(=O)[C@H](CCCNC(=N)N)NC(=O)[C@H](C)NC(=O)[C@@H](NC(=O)[C@H](Cc1c[nH]c2ccccc12)NC(=O)[C@@H](N)CCCNC(=N)N)C(C)C)C(=O)N[C@@H](CC(N)=O)C(=O)N[C@H](C(=O)N[C@@H](CC(=O)O)C(=O)NCC(=O)N[C@@H](Cc1ccc(O)cc1)C(=O)N[C@@H](Cc1ccccc1)C(=O)N[C@@H](CC(=O)O)C(=O)N[C@@H](Cc1ccc(O)cc1)C(=O)N[C@@H](Cc1c[nH]c2ccccc12)C(=O)N[C@@H](Cc1cnc[nH]1)C(=O)N[C@@H](Cc1c[nH]c2ccccc12)C(=O)N[C@@H](CCC(=O)O)C(=O)O)[C@@H](C)O [2o] (H-RWVAREGMNTDGYFDYWHWE-OH),EC50,PD1:PDL1 interaction,349 nM
C=CC(=O)NCC[C@H](NC(=O)CNC(=O)[C@H](CC(=O)O)NC(=O)[C@@H](NC(=O)[C@H](CC(N)=O)NC(=O)[C@H](CCSC)NC(=O)CNC(=O)[C@H](CCC(=O)O)NC(=O)[C@H](CCCNC(=N)N)NC(=O)[C@H](C)NC(=O)[C@@H](NC(=O)[C@H](Cc1c[nH]c2ccccc12)NC(=O)[C@@H](N)CCCNC(=N)N)C(C)C)[C@@H](C)O)C(=O)N[C@@H](Cc1ccccc1)C(=O)N[C@@H](CC(N)=O)C(=O)N[C@@H](Cc1ccc(O)cc1)C(=O)N[C@@H](Cc1c[nH]c2ccccc12)C(=O)N[C@H](C(=O)N[C@@H](Cc1c[nH]c2ccccc12)C(=O)N[C@@H](CCC(=O)O)C(=O)O)C(C)C [2pa] (H-RWVAREGMNTDG[Dab](Acryloyl)FNYWVWE-OH),EC50,PD1:PDL1 interaction; [2],950 nM
C=CC(=O)NC[C@H](NC(=O)CNC(=O)[C@H](CC(=O)O)NC(=O)[C@@H](NC(=O)[C@H](CC(N)=O)NC(=O)[C@H](CCSC)NC(=O)CNC(=O)[C@H](CCC(=O)O)NC(=O)[C@H](CCCNC(=N)N)NC(=O)[C@H](C)NC(=O)[C@@H](NC(=O)[C@H](Cc1c[nH]c2ccccc12)NC(=O)[C@@H](N)CCCNC(=N)N)C(C)C)[C@@H](C)O)C(=O)N[C@@H](Cc1ccccc1)C(=O)N[C@@H](CC(N)=O)C(=O)N[C@@H](Cc1ccc(O)cc1)C(=O)N[C@@H](Cc1c[nH]c2ccccc12)C(=O)N[C@H](C(=O)N[C@@H](Cc1c[nH]c2ccccc12)C(=O)N[C@@H](CCC(=O)O)C(=O)O)C(C)C [2pb] (H-RWVAREGMNTDG[Dap](Acryloyl)FNYWVWE-OH),EC50,PD1:PDL1 interaction; [2],3040 nM
CC[C@H](C)[C@H](NC(=O)[C@H](Cc1ccc(O)cc1)NC(=O)[C@H](Cc1c[nH]c2ccccc12)NC(=O)[C@H](Cc1ccc(O)cc1)NC(=O)[C@H](CC(N)=O)NC(=O)CNC(=O)[C@H](Cc1ccc(O)cc1)NC(=O)[C@H](C)NC(=O)[C@H](CCCNC(=N)N)NC(=O)[C@H](C)NC(=O)[C@@H](NC(=O)[C@H](Cc1c[nH]c2ccccc12)NC(=O)[C@@H](N)CCCNC(=N)N)C(C)C)C(=O)N[C@@H](CC(=O)O)C(=O)N[C@H](C(=O)N[C@@H](Cc1c[nH]c2ccccc12)C(=O)N[C@@H](Cc1cnc[nH]1)C(=O)N[C@@H](Cc1c[nH]c2ccccc12)C(=O)N[C@@H](CCC(=O)O)C(=O)O)C(C)C [2q] (H-RWVARAYGNYWYIDVWHWE-OH),EC50,PD1:PDL1 interaction; [2],230 nM
CC[C@H](C)[C@H](NC(=O)[C@H](Cc1ccc(O)cc1)NC(=O)CNC(=O)[C@H](Cc1ccc(O)cc1)NC(=O)[C@H](CC(N)=O)NC(=O)CNC(=O)[C@H](Cc1ccc(O)cc1)NC(=O)[C@H](C)NC(=O)[C@H](CCCNC(=N)N)NC(=O)[C@H](C)NC(=O)[C@@H](NC(=O)[C@H](Cc1c[nH]c2ccccc12)NC(=O)[C@@H](N)CCCNC(=N)N)C(C)C)C(=O)N[C@@H](CC(=O)O)C(=O)N[C@H](C(=O)N[C@@H](Cc1c[nH]c2ccccc12)C(=O)N[C@@H](Cc1cnc[nH]1)C(=O)N[C@@H](Cc1c[nH]c2ccccc12)C(=O)N[C@@H](CCC(=O)O)C(=O)O)C(C)C [2r] (H-RWVARAYGNYGYIDVWHWE-OH),EC50,PD1:PDL1 interaction; [2],170 nM
